This is an account of results in ChEMBL document CHEMBL1133272, “A solid-phase synthesis for beta-turn mimetics of sialyl Lewis X” (Bioorg Med Chem Lett, 2000).

One assay has as its target T1, P-selectin (Homo sapiens, UniProt P16109).
T1 sequence (P16109 whole entry): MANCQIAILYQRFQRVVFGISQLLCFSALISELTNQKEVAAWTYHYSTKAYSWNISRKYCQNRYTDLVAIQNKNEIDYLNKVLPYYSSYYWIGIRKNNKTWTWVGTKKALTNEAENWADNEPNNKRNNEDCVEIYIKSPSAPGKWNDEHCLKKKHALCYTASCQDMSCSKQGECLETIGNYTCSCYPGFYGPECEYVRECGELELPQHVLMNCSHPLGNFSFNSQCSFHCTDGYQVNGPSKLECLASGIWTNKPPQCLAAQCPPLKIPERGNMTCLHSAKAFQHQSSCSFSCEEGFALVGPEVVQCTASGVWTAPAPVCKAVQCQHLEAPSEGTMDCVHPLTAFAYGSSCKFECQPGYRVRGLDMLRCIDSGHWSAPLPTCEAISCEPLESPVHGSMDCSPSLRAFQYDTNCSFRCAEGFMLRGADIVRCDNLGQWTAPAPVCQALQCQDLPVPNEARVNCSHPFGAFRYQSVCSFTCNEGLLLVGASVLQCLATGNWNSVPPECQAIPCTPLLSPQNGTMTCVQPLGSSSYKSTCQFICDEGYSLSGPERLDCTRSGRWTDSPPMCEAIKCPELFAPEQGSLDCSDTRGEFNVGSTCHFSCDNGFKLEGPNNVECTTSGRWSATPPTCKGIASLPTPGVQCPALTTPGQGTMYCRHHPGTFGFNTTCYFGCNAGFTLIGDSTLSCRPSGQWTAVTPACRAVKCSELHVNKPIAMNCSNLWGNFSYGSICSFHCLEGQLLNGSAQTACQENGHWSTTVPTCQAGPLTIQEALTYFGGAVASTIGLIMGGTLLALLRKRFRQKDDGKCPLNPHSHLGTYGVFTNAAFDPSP
The experiment in a line: In vitro inhibitory activity of compound was determined against Selectin P binding by ELISA assay.

The target in a further assay is T2, E-selectin (Homo sapiens, UniProt P16581).
T2 sequence (P16581 whole entry): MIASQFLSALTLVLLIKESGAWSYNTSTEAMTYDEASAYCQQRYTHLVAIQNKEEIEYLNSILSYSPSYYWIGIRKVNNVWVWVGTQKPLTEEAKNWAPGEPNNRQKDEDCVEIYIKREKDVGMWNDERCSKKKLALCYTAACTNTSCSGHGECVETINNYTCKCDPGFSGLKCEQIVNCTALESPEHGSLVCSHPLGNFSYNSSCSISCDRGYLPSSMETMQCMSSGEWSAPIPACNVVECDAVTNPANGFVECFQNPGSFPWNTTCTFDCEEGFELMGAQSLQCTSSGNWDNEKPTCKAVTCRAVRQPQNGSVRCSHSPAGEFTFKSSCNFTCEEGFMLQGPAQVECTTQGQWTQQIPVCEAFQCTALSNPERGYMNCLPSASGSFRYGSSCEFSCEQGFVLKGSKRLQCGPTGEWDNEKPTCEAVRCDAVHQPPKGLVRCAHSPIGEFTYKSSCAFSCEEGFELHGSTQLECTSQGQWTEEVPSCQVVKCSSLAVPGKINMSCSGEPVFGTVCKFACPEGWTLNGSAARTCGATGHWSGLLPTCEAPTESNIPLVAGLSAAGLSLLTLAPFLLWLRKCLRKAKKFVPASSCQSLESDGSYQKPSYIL
Description: In vitro inhibitory activity of compound was determined against Selectin E binding by ELISA assay. (In general: ELISA stands for enzyme-linked immunosorbent assay.)

Another assay concerns the target T3, L-selectin (Homo sapiens, UniProt P14151).
T3 sequence (P14151 whole entry): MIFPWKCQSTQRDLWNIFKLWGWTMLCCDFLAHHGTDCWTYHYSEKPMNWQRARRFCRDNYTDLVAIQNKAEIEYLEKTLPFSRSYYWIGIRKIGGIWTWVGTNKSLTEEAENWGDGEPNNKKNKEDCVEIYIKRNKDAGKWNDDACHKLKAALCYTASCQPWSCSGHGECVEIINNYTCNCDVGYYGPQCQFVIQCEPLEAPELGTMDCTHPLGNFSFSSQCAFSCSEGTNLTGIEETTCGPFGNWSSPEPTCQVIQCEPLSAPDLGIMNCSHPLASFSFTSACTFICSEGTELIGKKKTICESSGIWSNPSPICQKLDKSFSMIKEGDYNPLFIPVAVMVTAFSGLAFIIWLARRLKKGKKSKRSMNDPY
Description: In vitro inhibitory activity of compound was determined against Selectin L binding by ELISA assay.

For orientation: IC50 means the concentration that inhibits the measured activity by half. High values mean a need for much substance, low ones inhibition by little substance. Turning to `CCCCCCCCCCCCCCC(CCCCCCCCCCCCCC)C(=O)N[C@@H](CO[C@@H]1O[C@@H](CO)[C@H](O)[C@H](O)[C@H]1O)C(=O)N[C@H](CCC(=O)O)C(=O)NC`, the figures for the IC50 on P-selectin, at E-selectin and on L-selectin were 0.45 µM, 3.5 µM and 4 µM, respectively.
For `CC(=O)N[C@H]1[C@H]([C@H](O)[C@H](O)CO)O[C@@](O[C@H]2[C@@H](O)[C@@H](CO)O[C@@H](O[C@@H]([C@H](O[C@@H]3O[C@@H](C)[C@@H](O)[C@@H](O)[C@@H]3O)[C@H](C=O)NC(C)=O)[C@H](O)CO)[C@@H]2O)(C(=O)O)C[C@@H]1O` [SIALYL LEWIS X], the IC50 on P-selectin and at L-selectin was over 1000 µM throughout.
Consider `CCCCCCCCCCCCCCC(CCCCCCCCCCCCCC)CN1CCCS[C@@H](CCC(=O)O)C(=O)N[C@H](CO[C@H]2O[C@H](CO)[C@@H](O)[C@@H](O)[C@@H]2O)C1=O`, for which the half-inhibitory concentration (IC50) at P-selectin is 2.57 µM; at E-selectin, over 100 µM; at L-selectin it was 2.34 µM.
